Source: patent publication US20050079594A1, “Method of removing a biofilm” (Karine Marion, priority 2002, published 2005)

Experiments:
biofilm 1 = experiment: Area covered by biofilm 1 (staining, image analysis); format: cell-based
Protocol: The method was tested and implemented experimentally on five types of biofilm; biofilms 1, 2, 3 and 5 were obtained using an in vitro model that mimics the hemodialysis generator: • biofilm 1: enriched with nutrients for accelerated growth (3 days) moderate thickness (about 10^5 CFU/cm^2), very rich in slime; • biofilm 2: not enriched with nutrients having grown over 1 month, equivalent to those actually encountered in dialysis generators (about 10^3 CFU/cm^2) very rich in scale crystals; • biofilm 3: enriched with nutrients for accelerated growth (5 days), thick (about 10^9 CFU/cm^2) very rich in slime; • biofilm 4: specimen of tubing conveying water for hemodialysis, taken from a center, covered with a biofilm of about 10^3 CFU/cm^2 but having grown over more than one year; and • biofilm 5: enriched with nutrients for accelerated growth, having grown in a “preventive” model over three weeks. Production of the In Vitro Model
A 250 ml reactor vessel was filled with a nonsterile dialysate, prepared by diluting sterile apyrogenic hemodialysis concentrates (Clearflex® from Bieffe Medical) with nonsterile osmosed water containing Pseudomonas putida, Pseudomonas fluorescens and Flavimonas orizibitans, produced continuously in the laboratory.
The contaminating medium was circulated in a closed circuit in a loop of silicon tubing 1.5 meters in length and 5 mm inside diameter with a flow rate of 500 ml/min by a peristaltique pump. All the tubing and the reactor vessel were sterilized beforehand in an autoclave at 121° C. for 30 minutes. Thus, the dialysate naturally contaminated by the bacteria in the water was the only source of microorganisms.
The entire system was maintained at a temperature of 37° C. by a hotplate on which the reactor vessel was placed.
In the case of biofilms 1, 3 and 5, the bacterial growth and consequently the development of the biofilm were accelerated by adding an LB culture medium diluted 50-fold, i.e. an LB culture medium diluted to […] and topped up with a flow equal to 1/10th of that of the dialysate. The dialysate and culture medium top-up flow rates, regulated by a peristaltic pump, were 5 and 0.5 ml/minute, respectively.
The tubings covered with biofilms 1, 2 and 3 were cut into segments 5 cm in length. For screening on biofilms 1 and 2, each segment for undergoing one of the various treatments to be investigated was selected by drawing lots. Control specimens taken at random from the silicon loop were kept untreated.
The tubing segments to be treated were attached to the descending branch of a set-up consisting of two tubings—one ascending and the other descending, a peristaltic pump and a water bath (for treatments carried out a temperature above 20° C.). The product to be tested in “recirculation” mode was dissolved in a 100 ml flask and driven by the peristaltic pump at a rate of 500 ml/min in a closed circuit through the tubings for a duration corresponding to the contact times given in table II. The product to be tested in “static” mode was dissolved in a 100 ml flask and driven by the peristaltic pump until the tubings had been filled; the pump was then stopped and the product left in stasis for the desired contact time. After each treatment by a given product, the tubing specimens were rinsed for five minutes with osmosed water.
The control and treated biofilms were stained: • either with a 0.25% crystal violet solution; • or with a Baclight® fluorochrome solution (Syto 9 and propidium iodide). The viable bacteria show up green while the dead bacteria show up yellow or red.
The silicon tubing specimens covered with stained biofilms were attached to glass slides and observed under an optical microscope, the microscope being connected to a camera and to “Scion Images” image analysis software. […]

biofilm 2 = experiment: Area covered by biofilm 2 (staining, image analysis); format: cell-based; conditions: Treat. No. 7, 3%, 37 °C, 5 min, Recirc
Protocol: The method was tested and implemented experimentally on five types of biofilm; biofilms 1, 2, 3 and 5 were obtained using an in vitro model that mimics the hemodialysis generator: • biofilm 1: enriched with nutrients for accelerated growth (3 days) moderate thickness (about 10^5 CFU/cm^2), very rich in slime; • biofilm 2: not enriched with nutrients having grown over 1 month, equivalent to those actually encountered in dialysis generators (about 10^3 CFU/cm^2) very rich in scale crystals; • biofilm 3: enriched with nutrients for accelerated growth (5 days), thick (about 10^9 CFU/cm^2) very rich in slime; • biofilm 4: specimen of tubing conveying water for hemodialysis, taken from a center, covered with a biofilm of about 10^3 CFU/cm^2 but having grown over more than one year; and • biofilm 5: enriched with nutrients for accelerated growth, having grown in a “preventive” model over three weeks. […] Thus, several (6 to 10) photographs of the same specimen were taken, the stained area was evaluated quantitatively by the image analysis software and a mean covered area value per specimen was calculated. This mean value was compared with the covered area of the untreated control specimens: a percentage reduction in covered area was then calculated.

In the case of `O=C(O)CC(O)(CC(=O)O)C(=O)O` [Citric acid], the “Result (removal; % covered area reduction)” value (biofilm 1; Treat. No. 26, 3%, RT, 40 min, Recirc) is reported as “. (No removal 0)” and the “Result (removal; % covered area reduction)” value (biofilm 2) is reported as “**** (Excellent removal 75-99%)”.

With `[K+].[OH-]` [KOH] the “Result (removal; % covered area reduction)” value (biofilm 1; Treat. No. 13, 0.02N, RT, 40 min, Stat) was “** (Moderate removal 25-50%)”, the “Result (removal; % covered area reduction)” value (biofilm 1; Treat. No. 15, 0.02N, RT, 40 min, Recirc) was “** (Moderate removal 25-50%)” and the “Result (removal; % covered area reduction)” value (biofilm 1; Treat. No. 21, 0.02N, RT, 1 h, Recirc) was “*** (Good removal 50-75%)”. For the same molecule, the “Result (removal; % covered area reduction)” value (biofilm 1; Treat. No. 22, 0.02N, RT, 24 h, Recirc) was “**** (Excellent removal 75-99%)”, the “Result (removal; % covered area reduction)” value (biofilm 1; Treat. No. 27, 0.002N, RT, 40 min, Recirc) was “** (Moderate removal 25-50%)” and the “Result (removal; % covered area reduction)” value (biofilm 1; Treat. No. 35, 0.001N, RT, 40 min, Recirc) was “** (Moderate removal 25-50%)”.

In the case of `[Na+].[OH-]` [NaOH], the “Result (removal; % covered area reduction)” value (biofilm 1; Treat. No. 12, 0.01N, RT, 40 min, Stat) is reported as “* (Poor removal 0-25%)”.

`[O-][Cl+3]([O-])([O-])O` [Perchlo ac, Perchloric acid] was tested, and the “Result (removal; % covered area reduction)” value (biofilm 1; Treat. No. 11, 0.05%, RT, 40 min, Stat) was “. (No removal 0)”.

With `CCCCCCCCCCCCOS(=O)(=O)[O-].[Na+]` [SDS, Sodium dodecyl sulfate] the “Result (removal; % covered area reduction)” value (biofilm 1; Treat. No. 1, 5%, RT, 40 min, Stat) was “** (Moderate removal 25-50%)” and the “Result (removal; % covered area reduction)” value (biofilm 1; Treat. No. 8, 5%, RT, 40 min, Recirc) was “*/”.

For `O=C(O)C(Cl)(Cl)Cl` [TCA, Trichloroacetic acid], the “Result (removal; % covered area reduction)” value (biofilm 1; Treat. No. 14, 0.25%, RT, 40 min, Stat) was “. (No removal 0)”.

With Triton the “Result (removal; % covered area reduction)” value (biofilm 1; Treat. No. 2, 5%, RT, 40 min, Stat) was “* (Poor removal 0-25%)” and the “Result (removal; % covered area reduction)” value (biofilm 1; Treat. No. 16, 5%, RT, 40 min, Recirc) was “. (No removal 0)”.

For Trypsin, the “Result (removal; % covered area reduction)” value (biofilm 1; Treat. No. 6, EDTA IX, RT, 40 min, Stat) was “. (No removal 0)”, the “Result (removal; % covered area reduction)” value (biofilm 1; Treat. No. 7, 0.25%, 37 °C, 40 min, Stat) was “** (Moderate removal 25-50%)” and the “Result (removal; % covered area reduction)” value (biofilm 1; Treat. No. 29, 0.25%, 37 °C, 40 min, Recirc) was “. (No removal 0)”. For the same molecule, the “Result (removal; % covered area reduction)” value (biofilm 1; Treat. No. 37, 1%, 37 °C, 40 min, Recirc) was “* (Poor removal 0-25%)”.

B1: Thermolys: enzyme, Sigma (protein, UniProt P00800 233-548, looked up)
Thermolysin: ITGTSTVGVGRGVLGDQKNINTTYSTYYYLQDNTRGNGIFTYDAKYRTTLPGSLWADADNQFFASYDAPAVDAHYYAGVTYDYYKNVHNRLSYDGNNAAIRSSVHYSQGYNNAFWNGSQMVYGDGDGQTFIPLSGGIDVVAHELTHAVTDYTAGLIYQNESGAINEAISDIFGTLVEFYANKNPDWEIGEDVYTPGISGDSLRSMSDPAKYGDPDHYSKRYTGTQDNGGVHINSGIINKAAYLISQGGTHYGVSVVGIGRDKLGKIFYRALTQYLTPTSNFSQLRAAAVQSATDLYGSTSQEVASVKQAFDAVGVK
With B1 the “Result (removal; % covered area reduction)” value (biofilm 1; Treat. No. 33, 2 mg/50 ml, 37 °C, 40 min, Recirc) was “** (Moderate removal 25-50%)”.
